Reference: publication PMC7127794 (Bioorganic & Medicinal Chemistry Letters, 2015)
pEC50: −log10 of the molar value.

Tests used:
MDCK cells = details: dog
[1] = tested on: influenza virus A/H1N1/pdm09; assay type: cell-based, influenza virus A/California/07/09/H1N1/pdm09

Compound	anti-viral activity (in words) [1]	CD50 (MDCK cells) [µM]	further results
18α-GL [Compound 15]	week anti-viral activity		more toxic to cells than natural glycoside 1 (MDCK cells): 7.7 times; pEC50 [1]: 4.82; SI [1]: 3
CC1(C)[C@@H](O[C@H]2O[C@H](C(=O)O)[C@@H](O)[C@H](O)[C@H]2O[C@@H]2O[C@H](C(=O)O)[C@@H](O)[C@H](O)[C@H]2O)CC[C@]2(C)[C@H]3C(=O)C=C4[C@@H]5C[C@@](C)(C(=O)O)CC[C@]5(C)CC[C@@]4(C)[C@]3(C)CC[C@@H]12 [Compound 1, Glycyrrhizic acid]	did not show anti-viral activity	364.6	
COC(=O)[C@H](Cc1ccccc1)NC(=O)[C@H]1O[C@@H](O[C@H]2[C@H](O[C@H]3CC[C@]4(C)[C@H]5C(=O)C=C6[C@@H]7C[C@@](C)(C(=O)O)CC[C@]7(C)CC[C@@]6(C)[C@]5(C)CC[C@H]4C3(C)C)O[C@H](C(=O)N[C@@H](Cc3ccccc3)C(=O)OC)[C@@H](O)[C@@H]2O)[C@H](O)[C@@H](O)[C@@H]1O [Compound 5]			more wide SI values than Rimantadine [1]: 12.2 times
COC(=O)C[C@H](NC(=O)[C@H]1O[C@@H](O[C@H]2[C@H](O[C@H]3CC[C@]4(C)[C@H]5C(=O)C=C6[C@@H]7C[C@@](C)(C(=O)O)CC[C@]7(C)CC[C@@]6(C)[C@]5(C)CC[C@H]4C3(C)C)O[C@H](C(=O)N[C@@H](CC(=O)OC)C(=O)OC)[C@@H](O)[C@@H]2O)[C@H](O)[C@@H](O)[C@@H]1O)C(=O)OC [Compound 9]	does not confer virus-inhibiting properties	37.3	
CC1(C)[C@@H](O[C@@H]2O[C@H](C(=O)N[C@@H](CSCc3ccccc3)C(=O)O)[C@@H](O)[C@H](O)[C@H]2O[C@@H]2O[C@H](C(=O)N[C@@H](CSCc3ccccc3)C(=O)O)[C@@H](O)[C@H](O)[C@H]2O)CC[C@]2(C)[C@H]3C(=O)C=C4[C@@H]5C[C@@](C)(C(=O)O)CC[C@]5(C)CC[C@@]4(C)[C@]3(C)CC[C@@H]12 [Compound 11]			more wide SI values than Rimantadine [1]: 14.2 times
CC1(C)[C@@H](O[C@@H]2O[C@H](C(=O)N[C@@H](CCCCNC(=O)OCc3ccccc3)C(=O)O)[C@@H](O)[C@H](O)[C@H]2O[C@@H]2O[C@H](C(=O)N[C@@H](CCCCNC(=O)OCc3ccccc3)C(=O)O)[C@@H](O)[C@H](O)[C@H]2O)CC[C@]2(C)[C@H]3C(=O)C=C4[C@@H]5C[C@@](C)(C(=O)O)CC[C@]5(C)CC[C@@]4(C)[C@]3(C)CC[C@@H]12 [Compound 13]	slightly increased antiviral activity		
COC(=O)C[C@H](NC(=O)[C@H]1O[C@@H](O[C@H]2[C@H](O[C@H]3CC[C@]4(C)[C@H]5C(=O)C=C6[C@H]7C[C@@](C)(C(=O)O)CC[C@]7(C)CC[C@@]6(C)[C@]5(C)CC[C@H]4C3(C)C)O[C@H](C(=O)N[C@@H](CC(=O)OC)C(=O)OC)[C@@H](O)[C@@H]2O)[C@H](O)[C@@H](O)[C@@H]1O)C(=O)OC [Compound 16]		38.0	
CC1(C)[C@@H](O[C@@H]2O[C@H](C(=O)O)[C@@H](O)[C@H](O)[C@H]2O[C@@H]2O[C@H](C(=O)O)[C@@H](O)[C@H](O)[C@H]2O)CC[C@]2(C)C3=CC=C4[C@@H]5C[C@@](C)(C(=O)O)CC[C@]5(C)CC[C@@]4(C)[C@]3(C)CC[C@@H]12 [Compound 19]	moderate		more toxic to cells than natural glycoside 1 (MDCK cells): 17 times
